The record followed here is article PMC8125568 (2021).

Assay [1] has as its system AU-RNA (poly A—poly U) (RNA, polymer) A/U. The experiment in a line: UV thermal denaturation, 260 nm. Particulars: Na+ (sodium cacodylate, I = 0.05 M), error ± 0.5, per base.
Assay [2] has as its system AT-DNA (poly dAdT—poly dAdT) (DNA, polymer) AT. The experiment in a line: fluorimetric titration, Scatchard. Particulars: Na+ (sodium cacodylate, I = 0.05 M); pH 7.0, 25 °C, 0.04% DMSO; n fixed 0.2; polynucleotide as phosphates; per base.
Assay [3] relates to AU-RNA (poly A—poly U) (RNA, polymer) A/U. The assay can be described thus: fluorimetric titration, Scatchard. Particulars: Na+ (sodium cacodylate, I = 0.05 M); pH 7.0, 25 °C, 0.04% DMSO; n fixed 0.2; polynucleotide as phosphates; per base.
For assay [4] the test system is unchanged. The experiment in a line: circular dichroism titration. Particulars: Na+ (sodium cacodylate, I = 0.05 M); pH 7.0, room temperature; RNA 20 µM; CD spectrum somewhat changed. A general note: CD spectra are sensitive to the conformation of chiral molecules.

Structures are written as SMILES.

For `CC12SC(C(=O)NCCNC(=O)c3ccc4ccc5cccc6ccc3c4c56)=CC1=C1CCCC1=C1C=C(C(=O)NCCNC(=O)c3ccc4ccc5cccc6ccc3c4c56)SC12C` (stereo not drawn), in assay [1] (pH 7.0, 4% DMSO, r = 0.3, no stabilisation), the “∆Tm” value is 0.3 °C.

In the case of `Cc1sc(C(=O)NCCN)cc1C1=C(c2cc(C(=O)NCCN)sc2C)CCC1`, the “∆Tm” value in assay [1] (pH 7.0, r = 0.3) was −0.7 °C.

Turning to `Cc1sc(C(=O)NCCNC(=O)c2ccc3ccc4cccc5ccc2c3c45)cc1C1=C(c2cc(C(=O)NCCNC(=O)c3ccc4ccc5cccc6ccc3c4c56)sc2C)CCC1`, the figures for the logKs in assay [2] and in assay [3] were 6.3 log M^-1 and 6.1 log M^-1, respectively. For the same compound, in assay [1] (pH 7.0, 0.5% DMSO, r = 0.3, RNA 20 µM, two transitions (first/second)), the “∆Tm” value was 0/23.4 °C.

For the compound `CC12SC(C(=O)NCCN)=CC1=C1CCCC1=C1C=C(C(=O)NCCN)SC12C` (stereo not drawn), the binding entry in assay [4] is “weak”.
